Measured values as given in article PMC7914897, “Cytotoxic Potential of a-Azepano- and 3-Amino-3,4-SeCo-Triterpenoids” (International Journal of Molecular Sciences, 2021).
Where two headings read alike, the source gives them in different places.

What was measured:
SK-OV-3 (Ovarian cancer) = test: NCI-60 screen (SRB, 48 h); details: Homo sapiens
OVCAR-3 (Ovarian cancer) = test: cells; details: Homo sapiens, OVCAR-3
CCRF-CEM (Leukemia) = test: NCI-60 screen (SRB, 48 h); details: Homo sapiens
COLO 205 (Colon cancer) = test: NCI-60 screen (SRB, 48 h); details: Homo sapiens
Colon Cancer subpanel = test: NCI-60 screen, subpanel; details: Homo sapiens
HOP-62 (NSC lung cancer) = test: NCI-60 screen (SRB, 48 h); details: Homo sapiens, HOP-62
CNS cancer subpanel = test: NCI-60 screen, subpanel; details: Homo sapiens
SK-MEL-28 (Melanoma) = test: NCI-60 screen (SRB, 48 h); details: Homo sapiens
Renal Cancer subpanel = test: NCI-60 screen, subpanel; details: Homo sapiens
T-47D (Breast cancer) = test: NCI-60 screen (SRB, 48 h); details: Homo sapiens, T47D
[1] = test system: NCI-H322M (NSC lung cancer); test: NCI-60 screen (SRB, 48 h); details: Homo sapiens
M14 (Melanoma) = test: NCI-60 screen (SRB, 48 h)
MOLT-4 (Leukemia) = test: NCI-60 screen (SRB, 48 h); details: Homo sapiens, MOLT-4
EKVX (NSC lung cancer) = test: NCI-60 screen (SRB, 48 h); details: Homo sapiens
SF-295 (CNS cancer) = test: NCI-60 screen (SRB, 48 h); details: Homo sapiens
HOP-92 (NSC lung cancer) = test: NCI-60 screen (SRB, 48 h); details: Homo sapiens
CAKI-1 (Renal cancer) = test: NCI-60 screen (SRB, 48 h); details: Homo sapiens, CAKI-1
SW-620 (Colon cancer) = test: NCI-60 screen (SRB, 48 h); details: Homo sapiens
Ovarian Cancer subpanel = test: NCI-60 screen, subpanel; details: Homo sapiens
DU-145 (Prostate cancer) = test: NCI-60 screen (SRB, 48 h); details: Homo sapiens
A498 (Renal cancer) = test: NCI-60 screen (SRB, 48 h); details: Homo sapiens
SNB-75 (CNS cancer) = test: NCI-60 screen (SRB, 48 h); details: Homo sapiens
OVCAR-5 (Ovarian cancer) = test: NCI-60 screen (SRB, 48 h); details: Homo sapiens, OVCAR-5
[2] = test system: NCI-H226 (NSC lung cancer); test: NCI-60 screen (SRB, 48 h); details: Homo sapiens, NCI-H226
UO-31 (Renal cancer) = test: NCI-60 screen (SRB, 48 h); details: Homo sapiens, UO-31
HT29 (Colon cancer) = test: NCI-60 screen (SRB, 48 h); details: Homo sapiens, HT-29
[3] = test system: panel of approximately 60 cancer cell lines; test: NCI-60 screen (SRB, 48 h), full panel

C[C@H]1[C@H](C)CC[C@]2(C(=O)Nc3ccc4ncccc4c3)CC[C@]3(C)C(=CC[C@@H]4[C@@]5(C)CCCNC(C)(C)[C@@H]5CC[C@]43C)[C@H]12 [Compound 14]
GI50 (SK-OV-3 (Ovarian cancer); SK-OV-3): 1770 nM | IC (TGI) (SK-OV-3 (Ovarian cancer); SK-OV-3, 48 h, read-out: TGI): 3270 nM | GI50 (OVCAR-3 (Ovarian cancer)): 1810 nM | GI50 (CCRF-CEM (Leukemia)): 1670 nM | GI50 (COLO 205 (Colon cancer); COLO 205): 1750 nM | IC (TGI) (COLO 205 (Colon cancer); COLO 205, 48 h, read-out: TGI): 3590 nM | IC (TGI) (Colon Cancer subpanel; 48 h, read-out: TGI MG_MID): 3370 nM | GI50 (Colon Cancer subpanel; read-out: GI50 MG_MID): 1660 nM | CC50 (Colon Cancer subpanel; read-out: LC50 MG_MID): 6180 nM | GI50 (HOP-62 (NSC lung cancer)): 1760 nM | IC (TGI) (CNS cancer subpanel; 48 h, read-out: TGI MG_MID): 3170 nM | GI50 (CNS cancer subpanel; read-out: GI50 MG_MID): 1670 nM | GI50 (SK-MEL-28 (Melanoma); SK-MEL-28): 1660 nM | IC (TGI) (SK-MEL-28 (Melanoma); SK-MEL-28, 48 h, read-out: TGI): 3110 nM | IC (TGI) (Renal Cancer subpanel; 48 h, read-out: TGI MG_MID): 3240 nM | GI50 (Renal Cancer subpanel; read-out: GI50 MG_MID): 1660 nM | CC50 (Renal Cancer subpanel; read-out: LC50 MG_MID): 5600 nM | GI50 (T-47D (Breast cancer)): 1670 nM | IC (TGI) (T-47D (Breast cancer); 48 h, read-out: TGI): 3640 nM | GI50 [1]: 1720 nM | IC (TGI) ([1]; 48 h, read-out: TGI): 3110 nM | GI50 (M14 (Melanoma); Homo sapiens, M14): 1940 nM | IC (TGI) (M14 (Melanoma); Homo sapiens, M14, 48 h, read-out: TGI): 3590 nM | CC50 (M14 (Melanoma); Homo sapiens, M14, read-out: LC50): 6650 nM | Growth % of the Most Sensitive Cell Lines (M14 (Melanoma); M14, 1 dose 10 µM): −92.02% | GI50 (MOLT-4 (Leukemia)): 1420 nM | GI50 (EKVX (NSC lung cancer)): 1660 nM | GI50 (SF-295 (CNS cancer); SF-295): 1650 nM | IC (TGI) (SF-295 (CNS cancer); SF-295, 48 h, read-out: TGI): 3170 nM | GI50 (HOP-92 (NSC lung cancer); HOP-92): 1540 nM | IC (TGI) (HOP-92 (NSC lung cancer); HOP-92, 48 h, read-out: TGI): 3140 nM | GI50 (CAKI-1 (Renal cancer)): 1560 nM | GI50 (SW-620 (Colon cancer); SW-620): 1800 nM | IC (TGI) (SW-620 (Colon cancer); SW-620, 48 h, read-out: TGI): 3370 nM | CC50 (SW-620 (Colon cancer); SW-620, read-out: LC50): 6310 nM | IC (TGI) (Ovarian Cancer subpanel; 48 h, read-out: TGI MG_MID): 3300 nM | GI50 (Ovarian Cancer subpanel; read-out: GI50 MG_MID): 1770 nM | CC50 (Ovarian Cancer subpanel; read-out: LC50 MG_MID): 6690 nM | GI50 (DU-145 (Prostate cancer); DU-145): 1760 nM | IC (TGI) (DU-145 (Prostate cancer); DU-145, 48 h, read-out: TGI): 3280 nM | GI50 (A498 (Renal cancer); A498): 1560 nM | IC (TGI) (A498 (Renal cancer); A498, 48 h, read-out: TGI): 2960 nM | CC50 (A498 (Renal cancer); A498, read-out: LC50): 5600 nM | GI50 (SNB-75 (CNS cancer); SNB-75): 1520 nM | IC (TGI) (SNB-75 (CNS cancer); SNB-75, 48 h, read-out: TGI): 3090 nM | GI50 (OVCAR-5 (Ovarian cancer)): 1680 nM | GI50 [2]: 2100 nM | GI50 (UO-31 (Renal cancer)): 1500 nM | GI50 (HT29 (Colon cancer)): 1590 nM | Positive Cytostatic Effect (cell lines with percent growth 0 to 50 / total) ([3]; 1 dose 10 µM): 3/59 | Positive Cytotoxic Effect (cell lines with percent growth < 0 / total) ([3]; 1 dose 10 µM): 42/59 | number of cancer cell lines the compound was active against ([3]; 1 dose 10 µM): 45 cell lines | activity at 10 µM ([3]; Homo sapiens, 48 h, read-out: Mean Growth, %): -27.9% | activity at 10 µM ([3]; Homo sapiens, 48 h, read-out: Range of Growth, %): -100 to 110% | IC (TGI) ([3]; Homo sapiens, 48 h, read-out: TGI MG_MID60, average over all cell lines): 3350 nM | GI50 ([3]; Homo sapiens, read-out: GI50 MG_MID60): 1720 nM | GI50 ([3]; Homo sapiens, read-out: GI50 against all human tumor cell lines): < 3000 nM | CC50 ([3]; Homo sapiens, read-out: LC50 MG_MID60, average over all cell lines): 6520 nM
